In US20140088306A1, “RADIOACTIVE FLUORINE-LABELED QUINOXALINE COMPOUND” (Nihon Medi-Physics Co., Ltd., priority 2012, published 2014):
Entries after “also recorded” stand apart in the source; their conditions may differ.

Tests used:
[1] = In vivo radioactivity distribution experiment in normal mouse (Example 16); set-up: species or system ddY mice; conditions: for Radioactivity Amount, Blood / Radioactivity Amount, Bone / Radioactivity Amount, Brain / Radioactivity Amount, Heart / Radioactivity Amount, Intestine / Radioactivity Amount, Kidney / Radioactivity Amount, Liver / Radioactivity Amount, Lung / Radioactivity Amount, Pancreas / Radioactivity Amount, Spleen / Radioactivity Amount, Stomach*: normal ddY mice, tail vein, average for 5 mice (SD)
Experimental: An ethanol (10 μL)-containing saline solution of [^18F]D1 (25.8 kBq) or [^18F]D2 (48.2 kBq) (100 μL) was injected into the tail vein of ddY mice (male, 5-week old). Five mice were used for each group and sacrificed 2, 10, 30, and 60 minutes after administration to remove major organs. The blood and organs were weighed and further measured for radioactivity using a γ counter (Wallac 1470 Wizard 3, from Perkin-Elmer). The percent injected dose per organ was calculated by comparing tissue counts with suitably diluted aliquots of the injected material. The percent injected dose/g of each sample was calculated by comparing sample counts with the counts of the diluted initial dose.

Aβ plaques = test: In vitro autoradiography using postmortem brain section from Alzheimer's disease (Examples 14, 15); format: binding, human (Alzheimer's disease patient); conditions: brain section of Alzheimer's disease patient
Experimental: A postmortem autopsy brain tissue of a patient with Alzheimer's disease identified by postmortem dissection was obtained from Graduate School of Medicine, Kyoto University. The presence and location of senile plaques in the section were confirmed by immunohistochemical staining using an anti-Aβ1-42 antibody. The section was incubated together with [^18F]D1 or [^18F]D2 (0.37 MBq/100 μL) at room temperature for 1 hour. The resultant was immersed in a 50 volume % ethanol aqueous solution (2 minutes×2) and washed with water (2 minutes×2). After drying, the section was exposed to BAS imaging plate (from Fujifilm Corporation) for 1.5 hours. The image of autoradiography was obtained using BAS5000 scanner system (from Fujifilm Corporation).
A postmortem autopsy brain tissue of a patient with Alzheimer's disease identified by postmortem dissection was obtained from Graduate School of Medicine, Kyoto University, and serial sections […] of a paraffin-embedded brain tissue were used. First, they were each incubated with xylene (15 minutes×2), ethanol (1 minute×2), a 90 volume % ethanol aqueous solution (1 minute×2), and a 70 volume % ethanol aqueous solution (1 minute×1) in that order to perfectly perform deparaffinization, and then washed in water (2.5 minutes×2). Thereafter, for antibody recovery, the section was subjected to autoclave treatment for 15 minutes in 0.01 mol/L citrate buffer solution (pH 6.0). The resultant was incubated in PBS-Tween20 (5 minutes×2), and, for antibody recovery, incubated in a 90 volume % formic acid aqueous solution at room temperature for 5 minutes. The section was washed for 5 minutes with flowing tap water, and then incubated in PBS-Tween20 (2 minutes×1). The section was incubated with a mouse anti-Aβ1-42 monoclonal primary antibody (from Wako Pure Chemical Industries Ltd.) at room temperature overnight. The resultant was incubated in PBS-Tween20 (5 minutes×3) and then incubated together with biotin goat anti-mouse IgG (from Funakoshi Co., Ltd.) at room temperature for 1 hour. […]

Molecule: 4-(6-(2-[^18F]Fluoroethoxy)quinoxalin-2-yl)-N-methylaniline [[^18F]D2]
- Radioactivity Amount, Blood ([1]; 2 min. after): 3.91 (0.22) % injected dose/g
- Radioactivity Amount, Blood ([1]; 10 min. after): 3.35 (0.43) % injected dose/g
- Radioactivity Amount, Blood ([1]; 30 min. after): 3.83 (0.18) % injected dose/g
- Radioactivity Amount, Blood ([1]; 60 min. after): 4.15 (0.31) % injected dose/g
- Radioactivity Amount, Bone ([1]; 2 min. after): 2.81 (0.52) % injected dose/g
- Radioactivity Amount, Bone ([1]; 10 min. after): 2.12 (0.11) % injected dose/g
- Radioactivity Amount, Bone ([1]; 30 min. after): 2.86 (0.45) % injected dose/g
- Radioactivity Amount, Bone ([1]; 60 min. after): 4.26 (0.29) % injected dose/g
- Radioactivity Amount, Brain ([1]; 2 min. after): 6.19 (0.30) % injected dose/g
- Radioactivity Amount, Brain ([1]; 10 min. after): 5.11 (0.28) % injected dose/g
- Radioactivity Amount, Brain ([1]; 30 min. after): 2.73 (0.16) % injected dose/g
- Radioactivity Amount, Brain ([1]; 60 min. after): 2.41 (0.12) % injected dose/g
- Radioactivity Amount, Heart ([1]; 2 min. after): 6.12 (0.45) % injected dose/g
- Radioactivity Amount, Heart ([1]; 10 min. after): 3.93 (0.40) % injected dose/g
- Radioactivity Amount, Heart ([1]; 30 min. after): 3.20 (0.32) % injected dose/g
- Radioactivity Amount, Heart ([1]; 60 min. after): 3.80 (0.22) % injected dose/g
- Radioactivity Amount, Intestine ([1]; 2 min. after): 3.40 (0.34) % injected dose/g
- Radioactivity Amount, Intestine ([1]; 10 min. after): 8.06 (0.95) % injected dose/g
- Radioactivity Amount, Intestine ([1]; 30 min. after): 12.13 (2.05) % injected dose/g
- Radioactivity Amount, Intestine ([1]; 60 min. after): 13.37 (1.03) % injected dose/g
- Radioactivity Amount, Kidney ([1]; 2 min. after): 9.86 (0.77) % injected dose/g
- Radioactivity Amount, Kidney ([1]; 10 min. after): 6.40 (0.62) % injected dose/g
- Radioactivity Amount, Kidney ([1]; 30 min. after): 4.14 (0.31) % injected dose/g
- Radioactivity Amount, Kidney ([1]; 60 min. after): 3.08 (0.21) % injected dose/g
- Radioactivity Amount, Liver ([1]; 2 min. after): 8.81 (1.00) % injected dose/g
- Radioactivity Amount, Liver ([1]; 10 min. after): 9.29 (0.40) % injected dose/g
- Radioactivity Amount, Liver ([1]; 30 min. after): 7.07 (0.19) % injected dose/g
- Radioactivity Amount, Liver ([1]; 60 min. after): 6.10 (0.41) % injected dose/g
- Radioactivity Amount, Lung ([1]; 2 min. after): 8.13 (1.13) % injected dose/g
- Radioactivity Amount, Lung ([1]; 10 min. after): 5.10(0.74) % injected dose/g
- Radioactivity Amount, Lung ([1]; 30 min. after): 3.94 (0.33) % injected dose/g
- Radioactivity Amount, Lung ([1]; 60 min. after): 3.92 (0.11) % injected dose/g
- Radioactivity Amount, Pancreas ([1]; 2 min. after): 6.47 (0.75) % injected dose/g
- Radioactivity Amount, Pancreas ([1]; 10 min. after): 3.88 (0.52) % injected dose/g
- Radioactivity Amount, Pancreas ([1]; 30 min. after): 2.72 (0.29) % injected dose/g
- Radioactivity Amount, Pancreas ([1]; 60 min. after): 2.64 (0.34) % injected dose/g
- Radioactivity Amount, Spleen ([1]; 2 min. after): 3.14 (0.55) % injected dose/g
- Radioactivity Amount, Spleen ([1]; 10 min. after): 3.76 (0.55) % injected dose/g
- Radioactivity Amount, Spleen ([1]; 30 min. after): 3.07 (0.32) % injected dose/g
- Radioactivity Amount, Spleen ([1]; 60 min. after): 2.99 (0.21) % injected dose/g
- Radioactivity Amount, Stomach* ([1]; 2 min. after): 1.32 (0.21) % injected dose per organ
- Radioactivity Amount, Stomach* ([1]; 10 min. after): 1.86 (0.38) % injected dose per organ
- Radioactivity Amount, Stomach* ([1]; 30 min. after): 2.44 (0.62) % injected dose per organ
- Radioactivity Amount, Stomach* ([1]; 60 min. after): 2.00 (0.76) % injected dose per organ
- binding to / background in the white matter by autoradiography (Aβ plaques): low degree of background in the white matter
- labeling of Aβ plaques by autoradiography (Aβ plaques; 0.37 MBq/100 μL, 1 hour): provided a strong marker for Aβ plaques; also recorded: corresponded to the results of antibody immunohistochemical staining

Molecule: Nc1ccc(-c2cnc3cc(OCC[18F])ccc3n2)cc1 [[^18F]D1, 4-(6-(2-[^18F]Fluoroethoxy)quinoxalin-2-yl)aniline]
- Radioactivity Amount, Liver ([1]; 2 min. after): 5.30 (1.33) % injected dose/g
- Radioactivity Amount, Liver ([1]; 10 min. after): 6.58 (0.47) % injected dose/g
- Radioactivity Amount, Liver ([1]; 30 min. after): 4.90 (0.29) % injected dose/g
- Radioactivity Amount, Liver ([1]; 60 min. after): 4.88 (0.30) % injected dose/g
- amount of radioactivity in the brain ([1]; mouse, in vivo): 2.41-3.08 % ID/g
- binding to / background in the white matter by autoradiography (Aβ plaques): high non-specific binding to the white matter
